By IC50 is commonly meant the concentration that gives 50% inhibition. What is called EC50 is the concentration at which the effect is half-maximal. By CC50 is commonly meant the concentration at which the toxic effect on the cells reaches its halfway point. The AC50 is the midpoint of the concentration-response curve, whichever way the signal moves.

Here are results for 14 compounds from ChEMBL document CHEMBL1201862, “PubChem BioAssay data set” (2004).

Assay [1] deals with DNA (cytosine-5)-methyltransferase 1 (Homo sapiens, UniProt P26358). The experiment in a line: inhibition of DNA methylation by DNMT1 – biochemical, fluorescent molecular beacon, confirmation (AID 602386). The class given is functional.
In assay [2] the target is T1, Voltage-gated N-type calcium channel alpha-1B subunit/Amyloid beta A4 precursor protein-binding family A member 1 (Homo sapiens, UniProt Q00975+Q02410). The class given is protein assay.
Assay [3] deals with T1, Voltage-gated N-type calcium channel alpha-1B subunit/Amyloid beta A4 precursor protein-binding family A member 1. The class given is protein assay. The source holds these as a separate data set.
The target in assay [4] is Polyadenylate-binding protein 1 (Homo sapiens, UniProt P11940). Nature of the assay: blockers of PABP interaction with poly(A) – biochemical, fluorescence polarization, […] (AID 2014). A general note: In fluorescence polarisation assays a small probe gives low polarisation when free and higher when bound to something large.
The target in assay [5] is Eukaryotic translation initiation factor 4H (Homo sapiens, UniProt Q15056). The experiment in a line: eIF4H binding inhibition – biochemical, uHTS, fluorescence polarization, translation initiation inhibitor project, primary screen (AID 2012).
Assay [6] can be described thus: A cytotoxicity screen of small molecule inhibitors of the PhoP region in Salmonella typhi identified in the primary screen. [Related pubchem assays: 1850, 1864, 1985 ]. The class given is functional.
In assay [7] the target is T2, Short transient receptor potential channel 4 (Mus musculus, UniProt Q9QUQ5).
T2 sequence (Q9QUQ5 whole entry): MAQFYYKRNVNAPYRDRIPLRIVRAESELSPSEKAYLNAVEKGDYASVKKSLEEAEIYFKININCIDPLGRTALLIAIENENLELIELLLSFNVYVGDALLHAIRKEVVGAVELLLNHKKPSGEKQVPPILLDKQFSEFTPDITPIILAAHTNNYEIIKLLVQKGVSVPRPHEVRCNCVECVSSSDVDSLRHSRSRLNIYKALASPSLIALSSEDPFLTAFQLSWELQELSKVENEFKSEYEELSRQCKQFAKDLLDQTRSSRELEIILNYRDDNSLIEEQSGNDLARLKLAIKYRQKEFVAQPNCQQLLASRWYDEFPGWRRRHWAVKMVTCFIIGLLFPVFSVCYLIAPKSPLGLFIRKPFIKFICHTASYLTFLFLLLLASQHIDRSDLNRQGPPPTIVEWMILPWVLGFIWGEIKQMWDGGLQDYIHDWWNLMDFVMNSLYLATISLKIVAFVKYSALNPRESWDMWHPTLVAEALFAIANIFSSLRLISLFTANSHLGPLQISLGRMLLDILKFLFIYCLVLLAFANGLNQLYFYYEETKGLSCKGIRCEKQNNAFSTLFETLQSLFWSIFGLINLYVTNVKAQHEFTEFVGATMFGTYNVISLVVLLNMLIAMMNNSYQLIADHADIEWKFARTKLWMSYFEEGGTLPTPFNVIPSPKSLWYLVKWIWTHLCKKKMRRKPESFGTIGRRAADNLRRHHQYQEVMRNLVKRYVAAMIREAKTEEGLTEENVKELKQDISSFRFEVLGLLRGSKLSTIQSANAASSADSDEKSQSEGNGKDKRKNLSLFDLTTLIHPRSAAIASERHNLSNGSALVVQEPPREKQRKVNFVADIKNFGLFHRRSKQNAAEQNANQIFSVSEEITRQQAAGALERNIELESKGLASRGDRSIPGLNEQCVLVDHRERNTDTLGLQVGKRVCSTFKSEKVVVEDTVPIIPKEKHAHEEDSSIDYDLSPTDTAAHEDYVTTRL
Nature of the assay: block of DAMGO-driven TRPC4 calcium entry – cell-based, HEK293 TRPC4/mu-opioid, Fluo-4 calcium, dose response (AID 434942).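 Note: potency of inhibitors blocking the TRPC4 calcium response.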 It counts as functional.

A short description of assay [8]: A Cell Based Secondary Assay To Explore Cytotoxicity of Compounds that Sensitize Mycobacterium Tuberculosis to Beta-Lactam Antibiotics. The class given is functional.
Assay [9] has as its target DNA damage-inducible transcript 3 protein (Mus musculus, UniProt P35639). The class given is functional, Cricetulus griseus.
Assay [10] concerns HEK293. Nature of the assay: inhibition of NOD1-driven NF-kB reporter – cell-based, luminescence, uHTS, primary screen (AID 1578). It counts as functional. As to conditions: Homo sapiens.
Assay [11] concerns HEK293. The experiment in a line: NOD2 signaling inhibitors in MDP-stimulated cells, cell-based, uHTS, luminescence (AID 2001). It counts as functional. As to conditions: Homo sapiens.
For assay [12], the system named is HEK293. Nature of the assay: cells. It counts as functional, cell-based. To be noted: Homo sapiens.
Assay [13] concerns the target T3, Carboxy-terminal domain RNA polymerase II polypeptide A small phosphatase 1 (Homo sapiens, UniProt Q9GZU7).
T3 sequence (Q9GZU7 whole entry): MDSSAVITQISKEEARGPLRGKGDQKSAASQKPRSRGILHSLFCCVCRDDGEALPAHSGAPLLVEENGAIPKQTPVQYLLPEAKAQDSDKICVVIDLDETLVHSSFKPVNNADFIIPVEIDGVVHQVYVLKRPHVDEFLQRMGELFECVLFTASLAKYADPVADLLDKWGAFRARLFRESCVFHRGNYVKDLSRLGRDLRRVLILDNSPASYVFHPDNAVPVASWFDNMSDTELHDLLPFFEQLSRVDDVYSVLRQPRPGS
The experiment in a line: CTDSP1 inhibitors, concentration-response, biochemical, absorbance readout, ultra-high-throughput screen actives (AID 540297). It counts as functional.

Assay [14] deals with HEK293. The experiment in a line: cells. It counts as functional, cell-based. To be noted: Homo sapiens. The source holds these as a separate data set.
The target of assay [15] is Nucleotide-binding oligomerization domain-containing protein 2 (Homo sapiens, UniProt Q9HC29). Nature of the assay: inhibition of NOD2-driven NF-kB reporter – cell-based, luminescence, uHTS, HEK293 (AID 1566). The class given is functional.
The subject of assay [16] is HEK293. Nature of the assay: cells. It counts as functional, cell-based. To be noted: Homo sapiens. The source holds these as a separate data set.
Assay [17] concerns the target Large T antigen (Simian virus 40, UniProt P03070). The class given is functional, Betapolyomavirus macacae.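 Note: Confirmatory-stage PubChem screen for compounds that inhibit SV40 T antigen.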
Assay [18] in a line: viability of PTEN-deleted HCT116 cells – cell-based, HCT116 PTEN knockout, dose response (AID 1047).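 Note: HCT116 colon tumor cells with PTEN knocked out; cells exposed to compound for 60 hours before readout; potency for loss of cell viability measured by luminescence.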 It counts as functional.
The nature of assay [19]: THP-1 cell cytotoxicity, dose response, cytotoxicity control for non-replicating M. tuberculosis project (AID 489025). It counts as functional.
The nature of assay [20]: viability of HCT116 lacking mutant beta-catenin – cell-based, human colon tumor, dose response (AID 1045).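 Note: HCT116 colon tumor cells with beta catenin knocked out; cells exposed to compound for 60 hours.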 The class given is functional.
Assay [21] can be described thus: cells. It counts as functional.
The target of assay [22] is Neurotensin receptor type 1 (Homo sapiens, UniProt P30989). The class given is functional.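 Note: Image-based confirmatory dose-response assay measuring agonist activity at NTR1; NTR1-expressing U2OS osteosarcoma cells imaged for beta-arrestin GFP spot formation; agonist potency where compounds increase beta-arrestin recruitment.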
The target in assay [23] is T4, Microphthalmia-associated transcription factor (Homo sapiens, UniProt O75030).
T4 sequence (O75030 whole entry): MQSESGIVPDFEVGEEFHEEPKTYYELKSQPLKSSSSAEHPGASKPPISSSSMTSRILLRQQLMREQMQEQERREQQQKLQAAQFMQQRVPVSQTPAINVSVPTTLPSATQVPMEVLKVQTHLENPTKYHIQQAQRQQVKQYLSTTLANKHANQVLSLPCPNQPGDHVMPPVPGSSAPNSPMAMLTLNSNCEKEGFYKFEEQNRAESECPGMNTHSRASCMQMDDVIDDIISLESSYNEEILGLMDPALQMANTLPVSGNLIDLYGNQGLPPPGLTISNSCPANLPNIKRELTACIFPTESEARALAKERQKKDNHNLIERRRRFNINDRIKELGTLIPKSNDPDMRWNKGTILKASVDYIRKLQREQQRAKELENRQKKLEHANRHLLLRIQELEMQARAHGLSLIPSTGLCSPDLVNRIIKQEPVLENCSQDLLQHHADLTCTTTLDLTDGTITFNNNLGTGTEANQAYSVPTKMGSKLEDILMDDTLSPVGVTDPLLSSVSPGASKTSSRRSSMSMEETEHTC
The experiment in a line: reducers of TRPM1 reporter luminescence, concentration series – cell-based, SK-MEL-5, cherry-picked, set 3, MITF inhibitor project, dose response (AID 493073).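 Note: SK-MEL-5 melanoma cells with luciferase driven by the MITF target TRPM1 promoter.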 It counts as functional.

The target in assay [24] is T5, Protein skinhead-1 (Caenorhabditis elegans, UniProt P34707).
T5 sequence (P34707 whole entry): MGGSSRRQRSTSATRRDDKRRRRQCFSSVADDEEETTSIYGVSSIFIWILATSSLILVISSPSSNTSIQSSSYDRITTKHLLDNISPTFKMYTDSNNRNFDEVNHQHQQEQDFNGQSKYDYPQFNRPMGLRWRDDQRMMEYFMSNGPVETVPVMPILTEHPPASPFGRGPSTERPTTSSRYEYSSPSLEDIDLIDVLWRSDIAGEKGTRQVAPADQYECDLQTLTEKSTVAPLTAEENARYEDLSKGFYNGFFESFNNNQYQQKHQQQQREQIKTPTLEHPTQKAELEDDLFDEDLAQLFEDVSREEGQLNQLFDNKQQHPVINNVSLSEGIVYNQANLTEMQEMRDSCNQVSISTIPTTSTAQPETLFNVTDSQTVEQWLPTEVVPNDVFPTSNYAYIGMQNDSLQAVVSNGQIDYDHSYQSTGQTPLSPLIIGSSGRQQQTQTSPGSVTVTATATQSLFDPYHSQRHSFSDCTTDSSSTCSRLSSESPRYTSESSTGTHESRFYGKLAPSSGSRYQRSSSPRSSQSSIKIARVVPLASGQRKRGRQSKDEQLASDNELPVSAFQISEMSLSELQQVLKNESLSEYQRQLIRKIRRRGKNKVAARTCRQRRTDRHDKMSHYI
The class given is functional.

Activity calls are given as the source filed them.

Sequence of DNA damage-inducible transcript 3 protein (P35639 whole entry): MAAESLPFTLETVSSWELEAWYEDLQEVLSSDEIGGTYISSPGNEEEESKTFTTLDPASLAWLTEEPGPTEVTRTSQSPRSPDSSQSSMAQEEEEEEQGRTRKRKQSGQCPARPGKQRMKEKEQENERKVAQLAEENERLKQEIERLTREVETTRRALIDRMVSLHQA
Sequence of Polyadenylate-binding protein 1 (P11940 whole entry): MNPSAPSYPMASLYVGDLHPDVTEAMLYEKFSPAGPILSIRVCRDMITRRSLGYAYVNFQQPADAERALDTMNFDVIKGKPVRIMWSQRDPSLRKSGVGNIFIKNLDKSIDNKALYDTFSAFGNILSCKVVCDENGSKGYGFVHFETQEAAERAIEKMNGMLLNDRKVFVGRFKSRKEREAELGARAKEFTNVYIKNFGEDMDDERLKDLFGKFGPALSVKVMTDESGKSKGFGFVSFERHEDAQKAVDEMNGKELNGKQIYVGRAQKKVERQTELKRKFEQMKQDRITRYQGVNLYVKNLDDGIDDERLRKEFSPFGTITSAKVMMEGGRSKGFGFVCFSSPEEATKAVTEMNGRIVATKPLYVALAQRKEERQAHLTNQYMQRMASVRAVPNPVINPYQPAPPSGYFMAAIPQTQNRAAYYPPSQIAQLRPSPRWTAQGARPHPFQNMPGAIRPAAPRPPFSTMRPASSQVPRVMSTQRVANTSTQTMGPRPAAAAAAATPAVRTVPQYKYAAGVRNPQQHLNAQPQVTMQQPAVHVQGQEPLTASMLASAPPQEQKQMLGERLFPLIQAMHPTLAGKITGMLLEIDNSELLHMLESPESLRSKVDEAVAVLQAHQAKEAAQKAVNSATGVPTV
T1 sequence (Q00975 whole entry): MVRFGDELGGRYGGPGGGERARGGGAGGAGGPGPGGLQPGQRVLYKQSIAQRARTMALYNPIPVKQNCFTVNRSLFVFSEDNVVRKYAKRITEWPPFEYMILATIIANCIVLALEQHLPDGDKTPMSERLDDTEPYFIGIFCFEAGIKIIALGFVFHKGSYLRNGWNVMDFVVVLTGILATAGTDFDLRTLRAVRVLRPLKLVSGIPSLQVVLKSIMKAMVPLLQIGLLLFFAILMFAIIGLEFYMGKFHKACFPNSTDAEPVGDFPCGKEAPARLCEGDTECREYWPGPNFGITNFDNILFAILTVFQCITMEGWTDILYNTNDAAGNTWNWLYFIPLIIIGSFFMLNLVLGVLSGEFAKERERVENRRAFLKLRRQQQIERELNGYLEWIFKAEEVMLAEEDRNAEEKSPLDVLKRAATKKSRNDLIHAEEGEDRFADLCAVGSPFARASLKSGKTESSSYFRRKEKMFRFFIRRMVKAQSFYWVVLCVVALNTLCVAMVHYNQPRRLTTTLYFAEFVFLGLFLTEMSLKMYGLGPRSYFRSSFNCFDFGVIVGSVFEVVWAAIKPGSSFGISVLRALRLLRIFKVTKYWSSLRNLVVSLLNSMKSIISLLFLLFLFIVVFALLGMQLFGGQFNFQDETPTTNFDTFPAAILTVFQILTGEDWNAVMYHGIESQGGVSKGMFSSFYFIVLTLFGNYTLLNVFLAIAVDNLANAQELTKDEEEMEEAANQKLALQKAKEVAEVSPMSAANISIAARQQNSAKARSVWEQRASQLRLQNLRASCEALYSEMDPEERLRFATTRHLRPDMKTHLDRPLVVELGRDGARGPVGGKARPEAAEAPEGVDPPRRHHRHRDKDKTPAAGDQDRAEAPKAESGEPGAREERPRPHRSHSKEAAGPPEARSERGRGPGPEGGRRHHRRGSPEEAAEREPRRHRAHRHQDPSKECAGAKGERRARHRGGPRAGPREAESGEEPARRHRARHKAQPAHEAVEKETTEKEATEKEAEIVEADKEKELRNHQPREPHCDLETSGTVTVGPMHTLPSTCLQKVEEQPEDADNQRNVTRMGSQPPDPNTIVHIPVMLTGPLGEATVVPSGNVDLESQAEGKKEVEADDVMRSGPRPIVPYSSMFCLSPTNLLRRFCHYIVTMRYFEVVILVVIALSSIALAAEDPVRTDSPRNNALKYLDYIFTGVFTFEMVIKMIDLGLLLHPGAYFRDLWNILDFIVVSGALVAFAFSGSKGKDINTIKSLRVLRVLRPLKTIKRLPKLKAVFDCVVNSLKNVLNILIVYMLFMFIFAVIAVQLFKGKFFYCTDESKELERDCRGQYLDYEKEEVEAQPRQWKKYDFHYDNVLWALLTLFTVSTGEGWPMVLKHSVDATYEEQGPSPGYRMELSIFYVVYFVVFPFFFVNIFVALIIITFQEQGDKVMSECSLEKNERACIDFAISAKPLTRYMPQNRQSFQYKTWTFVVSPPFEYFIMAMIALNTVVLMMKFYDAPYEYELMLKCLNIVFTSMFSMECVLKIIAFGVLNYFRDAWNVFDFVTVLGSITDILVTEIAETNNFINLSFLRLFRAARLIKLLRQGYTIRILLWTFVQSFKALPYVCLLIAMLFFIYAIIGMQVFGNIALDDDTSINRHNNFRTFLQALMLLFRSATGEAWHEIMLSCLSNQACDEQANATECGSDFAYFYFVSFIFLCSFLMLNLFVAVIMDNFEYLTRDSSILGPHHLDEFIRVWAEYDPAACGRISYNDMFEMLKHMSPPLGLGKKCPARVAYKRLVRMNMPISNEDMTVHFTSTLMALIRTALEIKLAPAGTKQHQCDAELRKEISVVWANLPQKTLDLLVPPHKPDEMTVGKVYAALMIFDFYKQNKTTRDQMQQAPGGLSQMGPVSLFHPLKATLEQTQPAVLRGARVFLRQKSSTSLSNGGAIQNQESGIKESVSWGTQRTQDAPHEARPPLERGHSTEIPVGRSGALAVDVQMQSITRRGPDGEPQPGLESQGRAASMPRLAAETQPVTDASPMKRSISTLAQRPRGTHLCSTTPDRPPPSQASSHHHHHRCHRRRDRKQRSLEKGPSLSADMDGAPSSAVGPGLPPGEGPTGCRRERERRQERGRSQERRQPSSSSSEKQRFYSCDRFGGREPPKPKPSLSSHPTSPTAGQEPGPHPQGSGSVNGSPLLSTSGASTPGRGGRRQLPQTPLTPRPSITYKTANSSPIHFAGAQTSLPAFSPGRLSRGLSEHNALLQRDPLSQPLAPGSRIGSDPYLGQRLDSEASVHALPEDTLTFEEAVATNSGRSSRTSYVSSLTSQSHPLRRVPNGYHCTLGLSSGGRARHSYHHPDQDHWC
T1 sequence (Q02410 whole entry): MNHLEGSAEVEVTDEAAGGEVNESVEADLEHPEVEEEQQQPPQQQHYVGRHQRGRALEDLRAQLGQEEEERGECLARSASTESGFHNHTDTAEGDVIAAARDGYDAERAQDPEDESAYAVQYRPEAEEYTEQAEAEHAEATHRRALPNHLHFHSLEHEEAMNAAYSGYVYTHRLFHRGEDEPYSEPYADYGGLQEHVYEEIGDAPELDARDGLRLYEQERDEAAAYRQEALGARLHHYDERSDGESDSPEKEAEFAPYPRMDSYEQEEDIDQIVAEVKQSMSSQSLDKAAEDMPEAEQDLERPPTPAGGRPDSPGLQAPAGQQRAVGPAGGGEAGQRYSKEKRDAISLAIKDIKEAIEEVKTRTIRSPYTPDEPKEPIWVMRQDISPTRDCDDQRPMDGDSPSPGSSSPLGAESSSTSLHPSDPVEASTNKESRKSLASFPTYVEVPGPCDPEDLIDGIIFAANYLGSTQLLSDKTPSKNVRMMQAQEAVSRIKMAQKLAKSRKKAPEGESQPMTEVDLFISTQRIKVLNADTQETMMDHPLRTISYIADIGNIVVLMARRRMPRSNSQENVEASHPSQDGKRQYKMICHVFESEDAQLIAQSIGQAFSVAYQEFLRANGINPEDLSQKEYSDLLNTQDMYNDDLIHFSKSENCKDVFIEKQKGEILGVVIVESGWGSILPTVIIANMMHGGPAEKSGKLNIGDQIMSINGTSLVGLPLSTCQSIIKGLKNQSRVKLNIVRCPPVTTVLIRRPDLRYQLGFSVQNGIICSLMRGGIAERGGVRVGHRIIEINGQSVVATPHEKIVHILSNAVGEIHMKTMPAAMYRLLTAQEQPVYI
Sequence of Large T antigen (P03070 whole entry): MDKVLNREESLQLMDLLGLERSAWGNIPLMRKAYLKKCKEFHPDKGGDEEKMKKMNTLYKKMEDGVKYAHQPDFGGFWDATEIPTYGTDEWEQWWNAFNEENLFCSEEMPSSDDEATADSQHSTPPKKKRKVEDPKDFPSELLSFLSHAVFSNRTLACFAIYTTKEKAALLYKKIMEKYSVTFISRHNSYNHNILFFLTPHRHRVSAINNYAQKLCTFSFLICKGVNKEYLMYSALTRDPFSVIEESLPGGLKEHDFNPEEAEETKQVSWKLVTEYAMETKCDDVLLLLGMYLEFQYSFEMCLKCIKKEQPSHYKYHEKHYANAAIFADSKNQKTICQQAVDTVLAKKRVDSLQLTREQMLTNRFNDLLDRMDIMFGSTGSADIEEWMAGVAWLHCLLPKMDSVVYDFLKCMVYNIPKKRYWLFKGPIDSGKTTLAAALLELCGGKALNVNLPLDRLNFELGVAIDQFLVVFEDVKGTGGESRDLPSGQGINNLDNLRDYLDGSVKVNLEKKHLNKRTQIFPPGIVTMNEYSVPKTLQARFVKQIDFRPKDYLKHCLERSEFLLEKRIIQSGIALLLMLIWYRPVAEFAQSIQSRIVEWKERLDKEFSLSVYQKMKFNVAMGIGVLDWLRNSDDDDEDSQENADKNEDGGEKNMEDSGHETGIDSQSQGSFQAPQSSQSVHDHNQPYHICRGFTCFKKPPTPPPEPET

For the compound `O=C(CN1C(=O)S/C(=C\c2ccc(-c3cc(C(=O)O)ccc3Cl)o2)C1=O)Nc1ccc2c(c1)OCO2`, the IC50 was > 99 µM (inactive) in [1], > 56.8 µM (not active) in assay [2] and > 50 µM (inactive) in [3].

Take `CCN1C(NCCc2ccccn2)=N[C@@H](c2cccc(F)c2)C(C(=O)OC)=C1C`: the IC50 in [4] was 13.4 µM (active); in assay [5], > 100 µM (inactive).

Take `COC(=O)c1cc2oc(C)cc2n1CC(=O)Nc1ccc(C)c(C)c1`: the 50% effective concentration (EC50) in [6] was > 50 µM (active).

`O=C(c1cccc(C(=O)N2CCN(c3ccc(F)cc3)CC2)c1)N1CCN(c2ccc(F)cc2)CC1`: the EC50 in assay [7] is 0.841 µM (active). Besides, the 50% cytotoxic concentration (CC50) in assay [8] was > 40 µM (active).

Regarding `CCc1ccc(OCCNC(=O)c2ccccc2SCc2ccccc2)cc1`, in assay [9], the “Absolute IC50 (CHOP)” value was determined as 10 µM.

For `CCn1nc(NC(C)=O)c2cc3cccc(C)c3nc21`, the values for the IC50 in [4] and in assay [5] were 7.59 µM (active) and > 100 µM (inactive), respectively.

For the compound `CN1CCc2nc(SCC(=O)Nc3ccc(Cl)cc3)c(C#N)cc2C1`, the EC50 in [6] was > 50 µM (active).

For the compound `COc1ccc(C2=NN(C(=O)c3ccco3)C(c3cc4ccccc4nc3Cl)C2)cc1` (configuration not stated), the “Absolute IC50 (CHOP)” value in assay [9] was 10 µM.

Take `COc1ccc2c(c1)c(=O)oc1c(C)c(OCc3ccc(C(=O)O)cc3)ccc12`: the EC50 in assay [10] and in assay [15] was > 20 µM (inactive) throughout. Moreover, the IC50 in assay [11] was > 20 µM (inactive); in [12], > 20 µM (inactive); in assay [13], 2.01 µM (active); in assay [14], 14.4 µM (active); in assay [16], > 20 µM (inactive).

For `Cc1cccc(N2CCN(C(=O)Cn3sc4nc(C)cc(C)c4c3=O)CC2C)c1` (configuration not stated), the IC50 in assay [17] is 18.1 µM (active); in assay [2], 16.7 µM (active); in assay [21], 23.8 µM (active); in assay [3], > 50 µM (inactive). Besides, the concentration for a half-maximal effect (EC50) in assay [18] and in assay [20] was 17 µM (active) throughout. Moreover, in [19], the CC50 is > 40 µM (active).

For the compound `Cn1cc([N+](=O)[O-])c(C(=O)Nc2nc(-c3ccc(Cl)cc3)cs2)n1`, the results for the EC50 in assay [22], in assay [18] and in [20] were 3.8 µM (active), 0.596 µM (active) and 0.523 µM (active), respectively. The AC50 in assay [23] is 10.5 µM (active).

Turning to `FC(F)(F)c1cc(-c2cccs2)nc(-n2cc(Br)cn2)n1`, in assay [9], the “Absolute IC50 (CHOP)” value worked out at 10 µM. Also, the IC50 in assay [24] was > 100 µM (inactive).

For the compound `Cc1c(C(=O)N2CCN(Cc3ccccc3)CC2)sc2ncnc(N3CCOCC3)c12`, the EC50 in assay [6] is > 50 µM (active).

On to `O=C(NC(Cc1ccccc1)c1nc2ccccc2[nH]1)C1CC(=O)N(c2ccc3c(c2)OCCO3)C1` (configuration not stated), for which the IC50 is 8.72 µM (active) in assay [4], 56.2 µM (active) in assay [5] and 41.4 µM (active) in [13].
